Experimental data reported in PubChem BioAssay (NCI).
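Grown in 96-well plates, cells were treated for 48 hours with each compound at five concentrations. Insufficient inhibition: endpoint recorded as highest concentration tested. GI50 marks 50% less growth. At the TGI there is no net growth.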

Tests used:
Assay in all cases: NCI-60 cell line screen, 48 h
786-0 renal = system: 786-0 renal
A549 NSCLC = system: A549 NSCLC
ACHN renal = system: ACHN renal
BT-549 breast = system: BT-549 breast
CAKI-1 renal = system: CAKI-1 renal
CCRF-CEM leukemia = system: CCRF-CEM leukemia
COLO 205 colon = system: COLO 205 colon
DU-145 prostate = system: DU-145 prostate
EKVX NSCLC = system: EKVX NSCLC
HCC-2998 colon = system: HCC-2998 colon
HCT-116 colon = system: HCT-116 colon
HCT-15 colon = system: HCT-15 colon
HL-60(TB) leukemia = system: HL-60(TB) leukemia
HOP-62 NSCLC = system: HOP-62 NSCLC
HOP-92 NSCLC = system: HOP-92 NSCLC
HS 578T breast = system: HS 578T breast
HT29 colon = system: HT29 colon
IGROV1 ovarian = system: IGROV1 ovarian
K-562 leukemia = system: K-562 leukemia
KM12 colon = system: KM12 colon
LOX IMVI melanoma = system: LOX IMVI melanoma
M14 melanoma = system: M14 melanoma
MALME-3M melanoma = system: MALME-3M melanoma
MCF7 breast = system: MCF7 breast
MDA-MB-231 breast = system: MDA-MB-231 breast
MDA-MB-435 = system: MDA-MB-435
MDA-N = system: MDA-N
MOLT-4 leukemia = system: MOLT-4 leukemia
NCI-H226 lung = system: NCI-H226 lung
NCI-H460 lung = system: NCI-H460 lung
NCI-H522 lung = system: NCI-H522 lung
NCI/ADR-RES ovarian = system: NCI/ADR-RES ovarian
OVCAR-4 ovarian = system: OVCAR-4 ovarian
OVCAR-5 ovarian = system: OVCAR-5 ovarian
OVCAR-8 ovarian = system: OVCAR-8 ovarian
PC-3 prostate = system: PC-3 prostate
RPMI-8226 leukemia = system: RPMI-8226 leukemia
RXF 393 renal = system: RXF 393 renal
SF-268 CNS = system: SF-268 CNS
SF-295 CNS = system: SF-295 CNS
SF-539 CNS = system: SF-539 CNS
SK-MEL-2 melanoma = system: SK-MEL-2 melanoma
SK-MEL-28 melanoma = system: SK-MEL-28 melanoma
SK-MEL-5 melanoma = system: SK-MEL-5 melanoma
SK-OV-3 ovarian = system: SK-OV-3 ovarian
SN12C renal = system: SN12C renal
SNB-19 CNS = system: SNB-19 CNS
SNB-75 CNS = system: SNB-75 CNS
SR leukemia = system: SR leukemia
SW-620 colon = system: SW-620 colon
T-47D breast = system: T-47D breast
TK-10 renal = system: TK-10 renal
U251 CNS = system: U251 CNS
UACC-257 melanoma = system: UACC-257 melanoma
UACC-62 melanoma = system: UACC-62 melanoma
UO-31 renal = system: UO-31 renal
A498 renal = system: A498 renal
NCI-H23 lung = system: NCI-H23 lung
OVCAR-3 ovarian = system: OVCAR-3 ovarian

## CCN(CC)c1ccc2cc(-c3csc(-c4ccc(N(C)C)cc4)n3)c(=O)oc2c1
786-0 renal
  TGI: > 100 µM
A549 NSCLC
  TGI: > 100 µM
ACHN renal
  TGI: > 100 µM
BT-549 breast
  TGI: > 100 µM
CAKI-1 renal
  TGI: > 100 µM
CCRF-CEM leukemia
  TGI: > 100 µM
COLO 205 colon
  TGI: > 100 µM
DU-145 prostate
  TGI: > 100 µM
EKVX NSCLC
  TGI: > 100 µM
HCC-2998 colon
  TGI: > 100 µM
HCT-116 colon
  TGI: > 100 µM
HCT-15 colon
  TGI: > 100 µM
HL-60(TB) leukemia
  TGI: > 100 µM
HOP-62 NSCLC
  TGI: > 100 µM
HOP-92 NSCLC
  TGI: > 100 µM
HS 578T breast
  TGI: > 100 µM
HT29 colon
  TGI: > 100 µM
IGROV1 ovarian
  TGI: > 100 µM
K-562 leukemia
  TGI: > 100 µM
KM12 colon
  TGI: > 100 µM
LOX IMVI melanoma
  TGI: > 100 µM
M14 melanoma
  TGI: > 100 µM
MALME-3M melanoma
  TGI: > 100 µM
MCF7 breast
  TGI: > 100 µM
MDA-MB-231 breast
  TGI: > 100 µM
MDA-MB-435
  TGI: > 100 µM
MDA-N
  TGI: > 100 µM
MOLT-4 leukemia
  TGI: > 100 µM
NCI-H226 lung
  TGI: > 100 µM
NCI-H460 lung
  TGI: > 100 µM
NCI-H522 lung
  TGI: > 100 µM
NCI/ADR-RES ovarian
  TGI: > 100 µM
OVCAR-4 ovarian
  TGI: > 100 µM
OVCAR-5 ovarian
  TGI: > 100 µM
OVCAR-8 ovarian
  TGI: > 100 µM
PC-3 prostate
  TGI: > 100 µM
RPMI-8226 leukemia
  TGI: > 100 µM
RXF 393 renal
  TGI: > 100 µM
SF-268 CNS
  TGI: > 100 µM
SF-295 CNS
  TGI: > 100 µM
SF-539 CNS
  TGI: > 100 µM
SK-MEL-2 melanoma
  TGI: > 100 µM
SK-MEL-28 melanoma
  TGI: > 100 µM
SK-MEL-5 melanoma
  TGI: > 100 µM
SK-OV-3 ovarian
  TGI: > 100 µM
SN12C renal
  TGI: > 100 µM
SNB-19 CNS
  TGI: > 100 µM
SNB-75 CNS
  TGI: > 100 µM
SR leukemia
  TGI: > 100 µM
SW-620 colon
  TGI: > 100 µM
T-47D breast
  TGI: > 100 µM
TK-10 renal
  TGI: > 100 µM
U251 CNS
  TGI: > 100 µM
UACC-257 melanoma
  TGI: > 100 µM
UACC-62 melanoma
  TGI: > 100 µM
UO-31 renal
  TGI: > 100 µM

## Cn1c(=O)c2[nH]cnc2n(C)c1=O.[CH2-]C(Cc1cccc2cc(C(=O)O)c(=O)oc12)OC.[Hg+2].[OH-] (configuration not stated)
786-0 renal
  GI50: 16.6 µM
  TGI: 30.2 µM
A498 renal
  GI50: 18.7 µM
  TGI: 33 µM
A549 NSCLC
  GI50: 19 µM
  TGI: 37.4 µM
ACHN renal
  GI50: 16.3 µM
  TGI: 29.9 µM
BT-549 breast
  GI50: 17.3 µM
  TGI: 31.2 µM
CAKI-1 renal
  GI50: 18 µM
  TGI: 32 µM
CCRF-CEM leukemia
  GI50: 3.21 µM
  TGI: 18 µM
COLO 205 colon
  GI50: 17.1 µM
  TGI: 30.9 µM
DU-145 prostate
  GI50: 17 µM
  TGI: 31.6 µM
EKVX NSCLC
  GI50: 20.7 µM
  TGI: 37.4 µM
HCC-2998 colon
  GI50: 23 µM
  TGI: 39.2 µM
HCT-116 colon
  GI50: 16.8 µM
  TGI: 30.5 µM
HCT-15 colon
  GI50: 16.6 µM
  TGI: 30.9 µM
HL-60(TB) leukemia
  GI50: 30.5 µM
  TGI: 58.3 µM
HOP-62 NSCLC
  GI50: 19.2 µM
  TGI: 41.8 µM
HOP-92 NSCLC
  GI50: 15.6 µM
  TGI: 29.9 µM
HS 578T breast
  GI50: 22.2 µM
  TGI: 57.3 µM
HT29 colon
  GI50: 17.1 µM
  TGI: 32 µM
IGROV1 ovarian
  GI50: 17.3 µM
  TGI: 31.4 µM
K-562 leukemia
  GI50: 18.9 µM
  TGI: 77.4 µM
KM12 colon
  GI50: 17.3 µM
  TGI: 32 µM
LOX IMVI melanoma
  GI50: 16 µM
  TGI: 30.3 µM
M14 melanoma
  GI50: 16.9 µM
  TGI: 30.7 µM
MALME-3M melanoma
  GI50: 8.67 µM
  TGI: 20.4 µM
MCF7 breast
  GI50: 16.6 µM
  TGI: 33 µM
MDA-MB-231 breast
  GI50: 20.9 µM
  TGI: 35.6 µM
MDA-MB-435
  GI50: 16.9 µM
  TGI: 30.6 µM
MDA-N
  GI50: 17.2 µM
  TGI: 30.9 µM
MOLT-4 leukemia
  GI50: 8.81 µM
  TGI: 40.5 µM
NCI-H226 lung
  GI50: 21.4 µM
  TGI: 40.7 µM
NCI-H23 lung
  GI50: 16.8 µM
  TGI: 30.9 µM
NCI-H522 lung
  GI50: 15.1 µM
  TGI: 32.5 µM
NCI/ADR-RES ovarian
  GI50: 19.8 µM
  TGI: 38.1 µM
OVCAR-3 ovarian
  GI50: 17.3 µM
  TGI: 32.8 µM
OVCAR-4 ovarian
  GI50: 17.9 µM
  TGI: 35.8 µM
OVCAR-5 ovarian
  GI50: 18.6 µM
  TGI: 32.7 µM
OVCAR-8 ovarian
  GI50: 18 µM
  TGI: 32 µM
PC-3 prostate
  GI50: 18 µM
  TGI: 31.8 µM
RPMI-8226 leukemia
  GI50: 18.2 µM
  TGI: 65.1 µM
RXF 393 renal
  GI50: 19.3 µM
  TGI: 35.9 µM
SF-268 CNS
  GI50: 16.9 µM
  TGI: 30.6 µM
SF-295 CNS
  GI50: 19.4 µM
  TGI: 38 µM
SF-539 CNS
  GI50: 14.6 µM
  TGI: 29.8 µM
SK-MEL-2 melanoma
  GI50: 17.4 µM
  TGI: 31.5 µM
SK-MEL-28 melanoma
  GI50: 19.1 µM
  TGI: 33.5 µM
SK-MEL-5 melanoma
  GI50: 17.4 µM
  TGI: 31.2 µM
SK-OV-3 ovarian
  GI50: > 44 µM
  TGI: > 58.5 µM
SN12C renal
  GI50: 18 µM
  TGI: 32.5 µM
SNB-19 CNS
  GI50: 17.7 µM
  TGI: 31.6 µM
SNB-75 CNS
  GI50: 17.7 µM
  TGI: 32.7 µM
SR leukemia
  GI50: 20.8 µM
  TGI: 53.8 µM
SW-620 colon
  GI50: 10.8 µM
  TGI: 28.7 µM
T-47D breast
  GI50: 18.9 µM
  TGI: 63.5 µM
TK-10 renal
  GI50: 19.3 µM
  TGI: 33.4 µM
U251 CNS
  GI50: 16.3 µM
  TGI: 29.8 µM
UACC-257 melanoma
  GI50: 17.9 µM
  TGI: 31.8 µM
UACC-62 melanoma
  GI50: 17.3 µM
  TGI: 31.3 µM
UO-31 renal
  GI50: 16.1 µM
  TGI: 29.8 µM
